In patent US12491156B2, “Carrier particles for dry powder formulations for inhalation” (Chiesi Farmaceutici S.p.A., priority 2019, dated 2025):

Test: Aerosol performances by Next Generation Impactor (NGI)
Assay type: physicochemical
Method: The evaluation of the aerosol performances was carried out using the Next Generation Impactor (NGI) according to the conditions reported in the European Pharmacopeia 8.5th Ed 2015, par 2.9.18, pages 309-320. After aerosolization of 3 doses from the inhaler device, the NGI apparatus was disassembled and the amounts of drug deposited in the stages were recovered by washing with a 50:50 v/v water:acetonitrile mixture and then quantified by High-Performance Liquid Chromatography (HPLC). The following parameters, were calculated: i) the delivered dose which is the amount of drug delivered from the device recovered in the all parts of impactor; ii) the fine particle mass (FPM) which is the amount of delivered dose having a particle size equal to or lower than 5.0 micron; iii) the fine particle fraction (FPF) which is the ratio between the fine particle mass and the delivered dose; iv) the MMAD. The evaluation of the aerosol performances was performed as reported in Example 1. […]

[1] = Example 4 formulation, Multidose DPI
[2] = Example 4 formulation, Single Dose DPI (RS01)
[3] = Example 5 formulation, 1 mg single dose, single dose DPI RS01
[4] = Example 5 formulation, 4 mg single dose, single dose DPI RS01

Row | Delivered Dose (Example 1 formulation (3000 μg BDP per 10 mg shot), multidose DPI of WO 2016/000983, NGI, 3 doses) [mg] | MMAD (Example 1 formulation, multidose DPI) [μm] | Fine Particle Mass (Example 1 formulation, multidose DPI, particle size equal to or lower than 5.0 micron) [mg] | Fine Particle Fraction (Example 1 formulation, multidose DPI, ratio fine particle mass/delivered dose) [%] | Fine Particle Fraction [1] [%] | Fine Particle Mass [1] [mg] | MMAD [1] [μm] | Delivered Dose (Example 4 formulation, Multidose DPI (WO 2016/000983)) [mg] | Fine Particle Fraction [2] [%] | Fine Particle Mass [2] [mg] | MMAD [2] [μm] | Delivered Dose (Example 4 formulation, Single Dose DPI (RS01 of Plastiape)) [mg] | Delivered Dose [3] [mg] | Fine Particle Fraction [3] [%] | Fine Particle Mass [3] [mg] | MMAD [3] [μm] | Delivered Dose [4] [mg] | Fine Particle Fraction [4] [%] | Fine Particle Mass [4] [mg] | MMAD [4] [μm] | Structure (SMILES)
1 | 2.16 | 2.26 | 0.87 | 38.5 | – | – | – | – | – | – | – | – | – | – | – | – | – | – | – | – | CCC(=O)OCC(=O)[C@@]1(OC(=O)CC)[C@@H](C)C[C@H]2[C@@H]3CCC4=CC(=O)C=C[C@]4(C)[C@@]3(Cl)[C@@H](O)C[C@@]21C [BDP, beclometasone dipropionate, reference compound]
2 | – | – | – | – | 41.7 | 0.8 | 2.09 | 1.92 | 77.1 | 1.18 | 1.88 | 1.53 | 0.81 | 71.6 | 0.58 | 2.15 | 2.88 | 73.9 | 2.13 | 1.85 | COC(=O)C1=C(C)N(c2cccc(C(F)(F)F)c2)c2n[nH]c(=O)n2[C@@H]1c1ccc(C#N)cc1CC[N+](C)(C)C [CHF 6333]
